# Assay results: PMC10552397 (Cell Communication and Signaling : CCS, 2023)
# Key:
# HeLa wt cells [1] = experiment: Immunofluorescence of GRASP55 and LC3; type: cell-based; conditions: 6 h; BafA1 10 nM
# Procedure: (§1) For immunofluorescence microscopy, HeLa cells were seeded on glass coverslips in 24-well plates. After treatment, cells were fixed in 4% paraformaldehyde for 15 min on ice, quenched with 50 mM NH4Cl for 15 min and permeabilized with 50 µg/mL digitonin (Sigma-Aldrich, St. Louis, MO, USA, #D141) for 5 min. Fixed samples were blocked with 3% BSA (Roth, Karlsruhe, Germany, #8076) for 30 min or overnight and incubated with primary antibodies diluted in 3% BSA for 2 h. Samples were then washed three times with DPBS, incubated with the appropriate secondary antibodies diluted in 3% BSA for 30 min and washed three times with DPBS. Afterwards, cells were embedded in ProLong Glass Antifade Mountant (Thermo Fisher Scientific, Waltham, MA, USA, #P36980) containing 1 µg/mL DAPI (Roth, Karlsruhe, Germany, #6335.1). Images were recorded with an Axio Observer 7 fluorescence microscope (Carl Zeiss Microscopy, Oberkochen, Germany) using a 40x/1,4 Oil DIC M27 Plan-Apochromat objective (Carl Zeiss Microscopy, Oberkochen, Germany) and an ApoTome 2 (Carl Zeiss Microscopy, Oberkochen, Germany).
# HeLa wt cells [2] = experiment: Immunofluorescence of LC3 and LAMP1; type: cell-based; conditions: 2 h; prodigiosin 100 nM, BafA1 10 nM
# Procedure: as §1
smiles,measurement,setting,value
"CO/C1=C\C(C)=C\[C@@H](C)[C@@H](O)[C@@H](C)C/C(C)=C/C=C/[C@H](OC)[C@@H]([C@@H](C)[C@@H](O)[C@H](C)[C@@]2(O)C[C@@H](O)[C@H](C)[C@@H](C(C)C)O2)OC1=O [BafA1, bafilomycin A1, reference compound]",co-localization of LC3 and GRASP55,HeLa wt cells [1],no significant increase
same,number of LC3 dots,HeLa wt cells [1],enriched
same,LC3-positive structures,HeLa wt cells [2],only minor
same,co-localization of LC3- and LAMP1-positive structures,HeLa wt cells [2],comparatively low
